We go through two compounds from patent US20160279146A1, “METHODS AND PHARMACEUTICAL FORMULATIONS FOR TREATMENT OF SELECTIVE ESTROGEN-RECEPTOR MODULATOR-INDUCED ADVERSE DRUG REACTIONS” (priority 2013, published 2016).

The subject of assay [1] is healthy females. The assay is described as follows: 15 Words Test. The assay is classed as in vivo, human. The following applies: after 4 daily doses; for 15 words direct / 15 words recall: number of recalled words; for 15 words direct: total in 5 consecutive trials; for 15 words recognition: number of words. The procedure:
(§1) 2 healthy females performed a number of neuropsychological tests at baseline, after taking 40 mg/day of tamoxifen for 4 consecutive days, and after taking 40 mg/day of tamoxifen combined with 0.5 mg/day of sublingual testosterone for 4 consecutive days, to investigate any beneficial effects of sublingual testosterone in women taking a selective estrogen-receptor modulator (SERM).
The 15 Words Test (15WT) is developed to investigate episodic memory problems in patients with brain disorders. It is the Dutch version of the Auditory Verbal Learning Test (REF?). This test consists of 15 words, which have to be learned during five trials. After every trial the respondent is asked to recall as many words as possible. After a distraction period of 20 minutes, the respondent is, again asked to name the words they have learned before.

In assay [2] the test system is healthy females. The assay is described as follows: Rapid Visual Information Processing (RVP). It counts as in vivo, human. The note with it: 2 healthy females; after 4 daily doses versus baseline.
Excerpt: A white box appears in the centre of the computer screen, inside which digits, from 2 to 9, appear in a pseudo-random order, at the rate of 100 digits per minute.
The nine RVP outcome measures cover latency, probabilities and sensitivity.
The test system of assay [3] is healthy females. The following applies: 2 healthy females; after 4 daily doses versus baseline.
Excerpt: Intra-Extra Dimensional Set Shift (IED)
Two artificial dimensions are used in the test: • color-filled shapes • white lines
Simple stimuli are made up of just one of these dimensions, whereas compound stimuli are made up of both, namely white lines overlying colour-filled shapes. The participant starts by seeing two simple colour-filled shapes, and must learn which one is correct by touching it.
Feedback teaches the participant which stimulus is correct, and after six correct responses, the stimuli and/or rules are changed. These shifts are initially intra-dimensional (e.g. colour filled shapes remain the only relevant dimension), then later extra-dimensional (white lines become the only relevant dimension). Participants progress through the test by satisfying a set criterion of learning at each stage (six consecutive correct responses). If at any stage the participant fails to reach this criterion after 50 trials, the test terminates. […]
Assay [4] concerns healthy females. Briefly: Neuropsychological tests, proof of concept study: conclusions per neuropsychological domain. The assay is classed as in vivo, human. The following applies: for Effect regarding executive functioning: 1 subject (trail making B), an indication; for Effect regarding information processing speed: both subjects, multiple indications. The procedure: as §1
In this proof of concept study, 2 healthy females performed a number of neuropsychological tests to investigate any beneficial effects of sublingual testosterone in women taking a SERM. The following neuropsychological domains were investigated (tasks are in brackets, see below for more information): • Information processing speed (Big/Little Circle, Choice Reaction Time, Match to Sample Visual Search, Trail making task A, 5-Choice Reaction Time) • Executive functioning (Intra-Extra Dimensional Set Shift, Trail making task B) • Reaction speed (Single Choice Reaction Time) • Working memory (Rapid Visual Information Processing) • Verbal memory (15-words task)
If tamoxifen in these women were to have detrimental effects on their cognitive functioning, a decrease in speed and/or accuracy on either of these tasks was expected.

In the assay on healthy females [1] (Subject 1), `CC/C(=C(\c1ccccc1)c1ccc(OCCN(C)C)cc1)c1ccccc1` [TAMOXIFEN, (Z)-2-[4-(1,2-diphenylbut-1-enyl)phenoxy]-N,N-dimethyl-ethanamine] showed a 15 words direct of 51, a 15 words recall of 6 and a 15 words recognition of 27. In the assay with healthy females [1] (Subject 2), this compound returned a 15 words direct of 43, a 15 words recall of 9 and a 15 words recognition of 28. In addition, the RVP task result with healthy females [2] is on record as “no effects”. Besides, in the assay on healthy females [3], the IED task result was “no effects”. Besides, in the assay on healthy females [4], the “Effect regarding executive functioning” value is on record as “deteriorating effects” and the “Effect regarding information processing speed” value is reported as “deteriorating effects”.
Turning to `C[C@]12CC[C@H]3[C@@H](CCC4=CC(=O)CC[C@@]43C)[C@@H]1CC[C@@H]2O` [testosterone], in the assay with healthy females [4] (1 subject (15 words recall)), the “Effect regarding verbal memory” value was “positive effect”. Further, in the assay with healthy females [4], the “Effect regarding executive functioning” value is on record as “positive effects” and the “Effect regarding information processing speed” value is given as “positive effects”.
